According to patent US6500846B1, “CDK inhibitors having flavone structure” (LG Chemical, Ltd., priority 1998, dated 2002):

How the values were obtained:
CDK2/cyclin A = biological target: T1, CDK2/cyclin A (Homo sapiens, UniProt P24941); assay: Inhibitory activity against CDK2/cyclin A enzyme (GST-RB phosphorylation, P32-γ-ATP, scintillation counting); type: biochemical; details: 100 μM ATP, GST-RB substrate, 30° C. 30 minutes
T1 construct: made in house; host or cells: insect cells infected with baculoviruses
Experimental: (§1) Analysis of inhibitory activity against CDK2/cyclin A and CDK4/cyclin D1 enzyme.
(§2) The inhibitory activity against CDK2 is measured by referring to Kitagawa, M. et al., Oncogene 9:2549, 1994 and the inhibitory activity against CDK4 is measured by referring to Carlson, B. A. et al., Cancer Research 56:2473,1996.
(§3) As for CDK2, either the extract from the insect cell infected both with baculovirus which expresses CDK2 gene and baculovirus which expresses cyclin A gene or the active enzyme which had been purified therefrom was used. CDK4 enzyme was also obtained from the insect cell infected both with baculovirus expressing CDK4 gene and baculovirus expressing cyclin D1 gene. As the substrate for CDK2, either histon H1 or Rb protein was used. Rb protein was also used as the substrate for CDK4.
(§4) Specifically the activities of enzymes CDK2/cyclin A and CDK4/cyclin D1 were determined according to the following procedure.
(§5) 100 ng of enzyme was reacted in a total 1000 μl of 20 mM Tris (pH 8.0), 100 mM NaCl, 10 mM MgCl2 buffer solution containing 20 μg of GST-RB protein, 100 μM of ATP and 5 μCi of P32-γ-ATP at 30° C. for 30 minutes. Then, the enzyme reaction was stopped by adding EDTA to a concentration of 20 mM. Subsequently, 30 μl of 50% glutathione bead (purchased from Pharmacia) was added to attach GST-RB to the bead, which was washed three times with 20mM Tris (pH 8.0), 100 mM NaCl, 10 mM EDTA solution, and then scintillation counting was carried out. To analyze the inhibitory activity of the compound, the inhibitor having a proper concentration was added to the enzyme reaction solution, and then the enzyme activity was measured according to the above method.
(§6) The inhibitory activity of the compound of formula (1) according to the present invention against CDK2 and CDK4 is represented as IC50 value. The compounds which are not included in Examples(compound 63, 64, 65 and 66) were synthesized and purified according to the same procedure as examples, and then IC50 thereof was measured.

CDK4/cyclin D1 = biological target: T2, CDK4/cyclin D1 (Homo sapiens, UniProt P11802); assay: Inhibitory activity against CDK4/cyclin D1 enzyme (GST-RB phosphorylation, P32-γ-ATP, scintillation counting); type: biochemical; details: CDK4/cyclin D1, 100 μM ATP, GST-RB substrate, 30° C. 30 minutes
T2 construct: made in house; host or cells: insect cells infected with baculoviruses
Experimental: as §1, §2, §3, §4, §5, §6

in vivo = details: male, ICR, mouse, po
Experimental: The acute oral toxcities of the compounds 14, 17, 28, 39, 51 and 57 each of which is obtained in Examples 14, 17, 73,84, 96 and 102, respectively are investigated in the following.
Solutions containing a compound in several different concentrations from each other were prepared, and they were administered orally to ICR male mouse with a dose of 10 ml/kg.
After administration, lethality and symptoms for 7 days were observed, and LD50 (mg/kg) was calculated according to Litchfield-Wilcoxon' method.

T2 sequence (P11802 whole entry, species assumed): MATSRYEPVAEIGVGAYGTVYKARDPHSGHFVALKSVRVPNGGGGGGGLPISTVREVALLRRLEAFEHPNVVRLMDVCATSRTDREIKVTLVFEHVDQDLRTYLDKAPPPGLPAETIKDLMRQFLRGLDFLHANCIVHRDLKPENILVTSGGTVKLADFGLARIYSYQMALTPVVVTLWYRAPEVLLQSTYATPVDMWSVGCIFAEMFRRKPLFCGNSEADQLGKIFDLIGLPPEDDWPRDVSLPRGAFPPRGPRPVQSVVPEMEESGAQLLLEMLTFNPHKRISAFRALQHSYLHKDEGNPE
T2 sequence (P24385 whole entry partner, species assumed): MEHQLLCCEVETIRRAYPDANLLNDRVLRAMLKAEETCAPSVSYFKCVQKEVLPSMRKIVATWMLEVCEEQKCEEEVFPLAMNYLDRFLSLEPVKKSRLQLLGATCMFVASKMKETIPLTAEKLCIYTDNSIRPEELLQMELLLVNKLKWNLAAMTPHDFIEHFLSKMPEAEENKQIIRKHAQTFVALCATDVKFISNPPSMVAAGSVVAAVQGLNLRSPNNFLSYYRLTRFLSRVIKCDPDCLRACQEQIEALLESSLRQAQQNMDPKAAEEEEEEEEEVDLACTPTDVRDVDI

Row | Structure (SMILES) | IC50 (CDK2/cyclin A) | IC50 (CDK4/cyclin D1) | LD50 at 7 days (in vivo)
1 | O=c1c(O)c(-c2ccc(O)c(O)c2)oc2ccc(F)cc12 [Compound 17, 6-fluoro-2-(3,4-dihydroxyphenyl)-3-hydroxy-4H-chromen-4-one] | < 10 µM | < 10 µM | > 3000 mg/kg
2 | O=C(NC(=O)c1ccccc1)Nc1ccc2oc(-c3ccc(O)c(O)c3)c(O)c(=O)c2c1 [Compound 57, N-benzoyl-N′-[2-(3,4-dihydroxyphenyl)-3-hydroxy-4-oxo-4H-chromen-6-yl]urea] | 22.4 µM | 18 µM | > 3000 mg/kg
3 | O=C(Nc1ccc([N+](=O)[O-])cc1)Nc1ccc2oc(-c3ccc(O)c(O)c3)c(O)c(=O)c2c1 [Compound 61, N-[2-(3,4-dihydroxyphenyl)-3-hydroxy-4-oxo-4H-chromen-6-yl]-N′-(4-nitrophenyl)urea] | 5.6 µM | 1.7 µM | 
4 | N#Cc1cccc(NC(=O)Nc2ccc3oc(-c4ccc(O)c(O)c4)c(O)c(=O)c3c2)c1 [Compound 60, N-(3-cyanophenyl)-N′-[2-(3,4-dihydroxyphenyl)-3-hydroxy-4-oxo-4H-chromen-6-yl]urea] | 4.7 µM | 2.7 µM | 
5 | COc1ccc2c(=O)cc(-c3ccccc3)oc2c1 [Compound 2, 7-methoxy-2-phenyl-chromen-4-one] | > 200 µM | > 200 µM | 
6 | O=c1c(O)c(-c2ccc(O)c(O)c2)oc2c(Cl)cc(Cl)cc12 [Compound 19, 6,8-dichloro-2-(3,4-dihydroxyphenyl)-3-hydroxy-4H-chromen-4-one] | < 10 µM | < 10 µM | 
7 | O=c1c(O)c(-c2ccc(O)c(O)c2)oc2ccc(NS(=O)(=O)NC3CCCCC3)cc12 [Compound 47, N-Cyclohexyl-N′-[2-(3,4-dihydroxyphenyl)-3-hydroxy-4-oxo-4H-chromen-6-yl]sulfamide] | 65 µM | 2 µM | 
8 | Cc1ccc(S(=O)(=O)Nc2ccc3oc(-c4ccc(O)c(O)c4)c(O)c(=O)c3c2)cc1 [Compound 28, N-[2-(3,4-dihydroxyphenyl)-3-hydroxy-4-oxo-4H-chromen-6-yl]-4-methylbenzenesulfonamide] | 56 µM | 7.8 µM | > 3000 mg/kg
9 | O=c1c(O)c(-c2ccc(O)c(O)c2)oc2ccc(NS(=O)(=O)c3ccc(C(F)(F)F)cc3)cc12 [Compound 39, N-[2-(3,4-dihydroxyphenyl)-3-hydroxy-4-oxo-4H-chromen-6-yl]-4-(trifluoromethyl)benzenesulfonamide] | 55 µM | 6.4 µM | > 3000 mg/kg
10 | COc1ccc(-c2oc3cc(OC)ccc3c(=O)c2O)cc1 [Compound 7, 3-hydroxy-7-methoxy-2-(4-methoxy-phenyl)-chromen-4-one] | > 100 µM | > 100 µM | 
11 | O=c1c(O)c(-c2ccc(O)c(O)c2)oc2ccc(NS(=O)(=O)c3ccc4ccccc4c3)cc12 [Compound 31, N-[2-(3,4-dihydroxyphenyl)-3-hydroxy-4-oxo-4H-chromen-6-yl]-2-naphthalenesulfonamide] | 35.5 µM | 4.2 µM | 
12 | COc1ccc(-c2oc3c([N+](=O)[O-])cc(Cl)cc3c(=O)c2O)cc1 [Compound 9, 6-chloro-3-hydroxy-2-(4-methoxy-phenyl)-8-nitro-chromen-4-one] | > 100 µM | > 100 µM | 
13 | COc1cccc2oc(-c3ccc(O)c(O)c3)c(O)c(=O)c12 [Compound 27, 2-(3,4-dihydroxyphenyl)-3-hydroxy-5-methoxy-4H-chromen-4-one] | < 10 µM | < 10 µM | 
14 | Cc1ccc2oc(-c3ccc(O)c(O)c3)c(O)c(=O)c2c1 [Compound 18, 6-methyl-2-(3,4-dihydroxyphenyl)-3-hydroxy-4H-chromen-4-one] | < 10 µM | < 10 µM | 
15 | O=c1c(O)c(-c2ccc(O)c(O)c2)oc2ccc(NS(=O)(=O)c3ccc4c(c3)CNCC4)cc12 [Compound 46, N-[2-(3,4-dihydroxyphenyl)-3-hydroxy-4-oxo-4H-chromen-6-yl]-1,2,3,4-tetrahydro-7-isoquinolinesulfonamide] | 82 µM | 6.3 µM | 
16 | O=C(O)c1ccc(S(=O)(=O)Nc2ccc3oc(-c4ccc(O)c(O)c4)c(O)c(=O)c3c2)cc1 [Compound 45, 4-({[2-(3,4-dihydroxyphenyl)-3-hydroxy-4-oxo-4H-chromen-6-yl]amino}sulfonyl)benzoic acid] | 28.2 µM | 6 µM | 
17 | O=C(Nc1ccc(Br)cc1)Nc1ccc2oc(-c3ccc(O)c(O)c3)c(O)c(=O)c2c1 [Compound 55, N-(4-bromophenyl)-N′-[2-(3,4-dihydroxyphenyl)-3-hydroxy-4-oxo-4H-chromen-6-yl]urea] | 1.3 µM | 0.7 µM | 
18 | COc1ccc(-c2oc3ccccc3c(=O)c2O)cc1 [Compound 11, 3-hydroxy-2-(4-methoxy-phenyl)-chromen-4-one] | > 100 µM | > 100 µM | 

More lines, main results first:

Row | IC50 (CDK2/cyclin A) | IC50 (CDK4/cyclin D1) | Structure (SMILES) | LD50 at 7 days (in vivo)
19 | 80 µM | 2.5 µM | O=c1c(O)c(-c2ccc(O)c(O)c2)oc2ccc(NS(=O)(=O)c3ccc(Cl)c([N+](=O)[O-])c3)cc12 [Compound 40, 4-chloro-N-[2-(3,4-dihydroxyphenyl)-3-hydroxy-4-oxo-4H-chromen-6-yl]-3-nitrobenzenesulfonamide] | 
20 | < 5 µM | < 5 µM | O=c1c(O)c(-c2ccc(O)c(O)c2)oc2ccc(Br)cc12 [Compound 13, 6-bromo-2-(3,4-dihydroxyphenyl)-3-hydroxy-4H-chromen-4-one] | 
21 | < 5 µM | < 10 µM | O=c1c(O)c(-c2ccc(O)c(O)c2)oc2ccc(Cl)cc12 [Compound 12, 6-chloro-2-(3,4-dihydroxyphenyl)-3-hydroxy-4H-chromen-4-one] | 
22 | 23 µM | 6 µM | O=C(Nc1ccc2oc(-c3ccc(O)c(O)c3)c(O)c(=O)c2c1)c1ccccc1 [Compound 52, N-[2-(3,4-dihydroxyphenyl)-3-hydroxy-4-oxo-4H-chromen-6-yl]benzamide] | 
23 | 2.6 µM | 2.3 µM | Nc1ccc(NC(=O)Nc2ccc3oc(-c4ccc(O)c(O)c4)c(O)c(=O)c3c2)cc1 [Compound 62, N-(4-aminophenyl)-N′-[2-(3,4-dihydroxyphenyl)-3-hydroxy-4-oxo-4H-chromen-6-yl]urea] | 
24 | < 10 µM | < 10 µM | Cc1cc2oc(-c3ccc(O)c(O)c3)c(O)c(=O)c2cc1Cl [Compound 22, 6-chloro-2-(3,4-dihydroxyphenyl)-3-hydroxy-7-methyl-4H-chromen4-one] | 
25 | 46 µM | 4.3 µM | O=c1c(O)c(-c2ccc(O)c(O)c2)oc2ccc(NS(=O)(=O)c3ccc(F)cc3F)cc12 [Compound 42, N-[2-(3,4-dihydroxyphenyl)-3-hydroxy-4-oxo-4H-chromen-6-yl]-2,4-difluorobenzenesulfonamide] | 
26 | 17.8 µM | 1.8 µM | O=c1c(O)c(-c2ccc(O)c(O)c2)oc2ccc(NS(=O)(=O)c3ccc(Br)cc3)cc12 [Compound 29, 4-bromo-N-[2-(3,4-dihydroxyphenyl)-3-hydroxy-4-oxo-4H-chromen-6-yl]benzenesulfonamide] | 
27 | 8.6 µM | 2.1 µM | O=c1c(O)c(-c2ccc(O)c(O)c2)oc2ccc(NS(=O)(=O)c3ccc(F)cc3)cc12 [Compound 43, N-[2-(3,4-dihydroxyphenyl)-3-hydroxy-4-oxo-4H-chromen-6-yl]-4-fluorobenzenesulfonamide] | 
28 | > 100 µM | > 100 µM | COc1cccc2oc(-c3ccc4c(c3)OCO4)c(O)c(=O)c12 [Compound 4, 2-(benzo[1,3]dioxol-5-yl)-3-hydroxy-5-methoxy-chromen-4-one] | 
29 | < 10 µM | < 10 µM | COc1ccc2oc(-c3ccc(O)c(O)c3)c(O)c(=O)c2c1 [Compound 16, 2-(3,4-dihydroxyphenyl)-3-hydroxy-6-methoxy-4H-chromen-4-one] | 
30 | 12.5 µM | 4.2 µM | O=c1c(O)c(-c2ccc(O)c(O)c2)oc2ccc(NS(=O)(=O)c3ccc(-c4ccccn4)s3)cc12 [Compound 37, N-[2-(3,4-dihydroxyphenyl)-3-hydroxy-4-oxo-4H-chromen-6-yl]-5-(2-pyridinyl)-2-thiophenesulfonamide] | 
31 | 2.3 µM | 2.8 µM | O=C(NCc1ccccc1)Nc1ccc2oc(-c3ccc(O)c(O)c3)c(O)c(=O)c2c1 [Compound 54, N-benzyl-N′-[2-(3,4-dihydroxyphenyl)-3-hydroxy-4-oxo-4H-chromen-6-yl]urea] | 
